# Results published in PMC11571207, “Stereorandomized Oncocins with Preserved Ribosome Binding and Antibacterial Activity” (Journal of Medicinal Chemistry, 2024).
# Read-outs that look alike come from different tables or passages of the source. Non-standard residues stand in square brackets, D forms with d. Residues, ends and D or L forms follow the SMILES beside them. No end group written: not given here.
# Assays:
# A. baumannii ATCC19606 = experiment: microbe, parasite or virus in culture; settings: for MIC A. baumannii, 12.5% MHB / MIC A. baumannii, Full MHB: A. baumannii ATCC19606, 16–20 h at 37 °C; for MIC A. baumannii, 12.5% MHB: 12.5% Müller–Hinton medium; for MIC A. baumannii, Full MHB: full Müller–Hinton medium; for MIC A. baumannii ATCC19606: supplement CSV
# Outline: (§1)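 Read-out was visible growth after MTT addition, the MIC being the lowest inhibitory peptide concentration. Bacteria grown to log phase in LB were exposed in MH medium to peptide from 64 μg/mL in twofold dilutions for 15-18h at 37°C.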
# E. coli W3110 = experiment: microbe, parasite or virus in culture; settings: for MIC E. coli, 12.5% MHB / MIC E. coli, Full MHB: E. coli W3110, 16–20 h at 37 °C, broth microdilution; for MIC E. coli, 12.5% MHB: 12.5% Müller–Hinton medium; for MIC E. coli, Full MHB: full Müller–Hinton medium; for MIC E. coli W3110: supplement CSV
# Outline: as §1
# K. pneumoniae NCTC 418 = experiment: microbe, parasite or virus in culture; settings: for MIC K. pneumoniae, 12.5% MHB / MIC K. pneumoniae, Full MHB: K. pneumoniae NCTC 418, 16–20 h at 37 °C; for MIC K. pneumoniae, 12.5% MHB: 12.5% Müller–Hinton medium; for MIC K. pneumoniae, Full MHB: full Müller–Hinton medium; for MIC K. pneumoniae NCTC418: supplement CSV
# Outline: as §1
# P. aeruginosa PAO1 = experiment: microbe, parasite or virus in culture; settings: for MIC P. aeruginosa, 12.5% MHB / MIC P. aeruginosa, Full MHB: P. aeruginosa PAO1, 16–20 h at 37 °C; for MIC P. aeruginosa, 12.5% MHB: 12.5% Müller–Hinton medium; for MIC P. aeruginosa, Full MHB: full Müller–Hinton medium; for MIC P. aeruginosa PAO1: supplement CSV
# Outline: as §1
# S. aureus COL (MRSA) = experiment: microbe, parasite or virus in culture; settings: for MIC S. aureus, 12.5% MHB / MIC S. aureus, Full MHB: S. aureus COL (MRSA), 16–20 h at 37 °C; for MIC S. aureus, 12.5% MHB: 12.5% Müller–Hinton medium; for MIC S. aureus, Full MHB: full Müller–Hinton medium; for MIC S. aureus COL (MRSA): supplement CSV
# Outline: as §1
# K. pneumoniae OXA-48 = experiment: microbe, parasite or virus in culture; settings: for MIC K. pneumoniae OXA-48, 12.5% MHB / MIC K. pneumoniae OXA-48, full MHB: carbapenem-resistant, 16–20 h at 37 °C; for MIC K. pneumoniae OXA-48, 12.5% MHB: 12.5% MHB pH 7.4; for MIC K. pneumoniae OXA-48, full MHB: full MHB pH 7.4; for MIC K. pneumoniae OXA-48: supplement CSV
# Procedure: (§2) Minimum inhibitory concentration assay
# (§3) Antimicrobial activity was assayed against P. aeruginosa PAO1, K. pneumoniae NCTC418, E. coli W3110, A. baumannii ATCC 19606, methicillin-resistant S. aureus COL (MRSA), and for selected peptides on P. aeruginosa PA14 and the polymyxin-B-resistant derivative PA14 2P4, as well as the clinical isolates ZEM-1A and ZEM9A, K. pneumoniae OXA-48, S. aureus Newman, Enterobacter cloacae and Burkholderia cenocepacia. The minimal inhibitory concentration (MIC) was determined by using broth microdilution method. A colo ny of bacteria was picked and grown in Luria-Bertani (LB) medium overnight at 37°C. For E. coli BW25113 sbmA::kan the medium was supplemented with 25 mg/L of kanamycin. The next day, the culture was then regrown in LB medium to log phase (OD600 = 0.6 to 0.8), which lasted approximately 4 h, and diluted to an OD600 of 0.022 in the desired medium. Stock solutions of 1 mg/mL of the samples were prepared in sterilized milliQ water and diluted to the beginning concentration of 64 μg/mL in 300 μL Mueller Hinton (MH)-medium. The diluted samples were added to first well of 96-well microtiter plate (TPP, untreated, Faust Laborbedarf, AG, Schaffhausen) and diluted serially by ½. Finally, 4 μL of the bacterial suspension was inoculated into the sample solutions (150 μL/well) with a final inoculation of about 5∙10^5 CFU/mL. The plates were then incubated at 37°C for 15-18h. For each assay, sterility (broth only) and growth control (broth with bacterial inoculum, without antibiotics) were checked with two columns in the plate. The next day, 15 μL of 3-(4,5-dimethylthiazol-2-yl)-2,5-diphenyltetrazolium bromide (MTT) was added to each well of the plate, such a way that MIC was defined as the lowest concentration of the peptide that inhibited visible growth of the tested
# E. coli BW25113 WT = settings: Table S1, 16-20 h at 37 °C; for MIC E. coli BW25113 WT, 12.5% MH: 12.5% Müller-Hinton medium pH 7.4; for MIC E. coli BW25113 WT, Full MH: full Müller-Hinton medium pH 7.4
# Procedure: as §2
# as §3, with “tested […]” for “tested”
# (§4) Table S1. Activity of stereorandomized and diastereomeric oncocins against E. coli BW25113 WT and BW25113 sbmA::kan mutant in full and 12.5% MH, at pH 7.4. […]
# (§5) a) Minimum inhibitory concentration (MIC, μg/mL) was determined on E. coli BW25113 WT and […]
# [1] = tested on: E. coli BW25113 sbmA::kan; settings: Table S1, sbmA::kan mutant, 16-20 h at 37 °C; for MIC E. coli BW25113 SbmA-, 12.5% MH: 12.5% Müller-Hinton medium pH 7.4; for MIC E. coli BW25113 SbmA-, Full MH: full Müller-Hinton medium pH 7.4
# Procedure: as §2
# as §3, with “tested […]” for “tested”
# as §4, §5
# [2] = tested on: P. aeruginosa PA14 4.13 (phoQ); settings: for MIC P. aeruginosa PA14 4.13 (phoQ), 12.5% MHB / MIC P. aeruginosa PA14 4.13 (phoQ), full MHB: polymyxin B resistant strain, 16–20 h at 37 °C; for MIC P. aeruginosa PA14 4.13 (phoQ), 12.5% MHB: 12.5% MHB pH 7.4; for MIC P. aeruginosa PA14 4.13 (phoQ), full MHB: full MHB pH 7.4; for MIC P. aeruginosa PA14 4.13: supplement CSV
Molecule,"MIC A. baumannii, 12.5% MHB (A. baumannii ATCC19606) [µg/mL]","MIC A. baumannii, Full MHB (A. baumannii ATCC19606) [µg/mL]",MIC A. baumannii ATCC19606 (A. baumannii ATCC19606; 12.5% MH pH 7.4) [µg/mL],MIC A. baumannii ATCC19606 (A. baumannii ATCC19606; full MH pH 7.4) [µg/mL],"MIC E. coli, 12.5% MHB (E. coli W3110) [µg/mL]","MIC E. coli, Full MHB (E. coli W3110) [µg/mL]",MIC E. coli W3110 (E. coli W3110; 12.5% MH pH 7.4) [µg/mL],MIC E. coli W3110 (E. coli W3110; full MH pH 7.4) [µg/mL],"MIC K. pneumoniae, 12.5% MHB (K. pneumoniae NCTC 418)","MIC K. pneumoniae, Full MHB (K. pneumoniae NCTC 418)",MIC K. pneumoniae NCTC418 (K. pneumoniae NCTC 418; 12.5% MH pH 7.4) [µg/mL],MIC K. pneumoniae NCTC418 (K. pneumoniae NCTC 418; full MH pH 7.4) [µg/mL],"MIC P. aeruginosa, 12.5% MHB (P. aeruginosa PAO1) [µg/mL]","MIC P. aeruginosa, Full MHB (P. aeruginosa PAO1) [µg/mL]",MIC P. aeruginosa PAO1 (P. aeruginosa PAO1; 12.5% MH pH 7.4) [µg/mL],MIC P. aeruginosa PAO1 (P. aeruginosa PAO1; full MH pH 7.4) [µg/mL],"MIC S. aureus, 12.5% MHB (S. aureus COL (MRSA))","MIC S. aureus, Full MHB (S. aureus COL (MRSA))",MIC S. aureus COL (MRSA) (S. aureus COL (MRSA); 12.5% MH pH 7.4) [µg/mL],MIC S. aureus COL (MRSA) (S. aureus COL (MRSA); full MH pH 7.4) [µg/mL],further results
VDKPPYLPRPRPPRRIYNR [sr9Cterm-Onc] (VDKPPYLPRPRPPRRIYNR-NH2; also: residues 11-19 stereorandomized (1:1 L/D mixture)),4,32,4,32,4,8,4,8,4 / 4 μg/mL,4 / 4 μg/mL,4,4,8,64,8,64,32 µg/mL,> 64 µg/mL,32,>64,"MIC K. pneumoniae OXA-48, 12.5% MHB (K. pneumoniae OXA-48): 4 µg/mL; MIC K. pneumoniae OXA-48, full MHB (K. pneumoniae OXA-48): 32 µg/mL; MIC K. pneumoniae OXA-48 (K. pneumoniae OXA-48; 12.5% MH pH 7.4): 4 µg/mL; MIC K. pneumoniae OXA-48 (K. pneumoniae OXA-48; full MH pH 7.4): 32 µg/mL; MIC E. coli BW25113 WT, 12.5% MH (E. coli BW25113 WT): 4 µg/mL; MIC E. coli BW25113 WT, Full MH (E. coli BW25113 WT): 32 µg/mL; MIC E. coli BW25113 SbmA-, 12.5% MH [1]: 8 µg/mL; MIC E. coli BW25113 SbmA-, Full MH [1]: > 64 µg/mL; MIC P. aeruginosa PA14 4.13 (phoQ), 12.5% MHB [2]: 8 µg/mL; MIC P. aeruginosa PA14 4.13 (phoQ), full MHB [2]: 64 µg/mL; MIC P. aeruginosa PA14 4.13 ([2]; 12.5% MH pH 7.4): 8 µg/mL; MIC P. aeruginosa PA14 4.13 ([2]; full MH pH 7.4): 64 µg/mL"
CC[C@H](C)[C@H](NC(=O)[C@H](CCCNC(=N)N)NC(=O)[C@H](CCCNC(=N)N)NC(=O)[C@@H]1CCCN1C(=O)[C@@H]1CCCN1C(=O)[C@H](CCCNC(=N)N)NC(=O)[C@@H]1CCCN1C(=O)[C@H](CCCNC(=N)N)NC(=O)[C@@H]1CCCN1C(=O)[C@@H](CC(C)C)NC(=O)[C@H](Cc1ccc(O)cc1)NC(=O)[C@@H]1CCCN1C(=O)[C@@H]1CCCN1C(=O)[C@H](CCCCN)NC(=O)[C@H](CC(=O)O)NC(=O)[C@@H](N)C(C)C)C(=O)N[C@@H](Cc1ccc(O)cc1)C(=O)N[C@@H](CC(N)=O)C(=O)N[C@@H](CCCNC(=N)N)C(N)=O [DL7-Onc] (H-VDKPPY[dL]PRPRPPRRIYNR-NH2),> 16,> 64,>16,>64,8,> 64,8,>64,> 16 µg/mL,> 64 µg/mL,>16,>64,> 16,> 64,>16,>64,>64 / >64 μg/mL,>64 / >64 μg/mL,>64,>64,"MIC K. pneumoniae OXA-48, 12.5% MHB (K. pneumoniae OXA-48): >64/>64 μg/mL; MIC K. pneumoniae OXA-48, full MHB (K. pneumoniae OXA-48): >64/>64 μg/mL; MIC K. pneumoniae OXA-48 (K. pneumoniae OXA-48; 12.5% MH pH 7.4): >64 µg/mL; MIC K. pneumoniae OXA-48 (K. pneumoniae OXA-48; full MH pH 7.4): >64 µg/mL; MIC E. coli BW25113 WT, 12.5% MH (E. coli BW25113 WT): 32 µg/mL; MIC E. coli BW25113 WT, Full MH (E. coli BW25113 WT): > 64 µg/mL; MIC E. coli BW25113 SbmA-, 12.5% MH [1]: 32 µg/mL; MIC E. coli BW25113 SbmA-, Full MH [1]: > 64 µg/mL; MIC P. aeruginosa PA14 4.13 (phoQ), 12.5% MHB [2]: >32/>32 μg/mL; MIC P. aeruginosa PA14 4.13 (phoQ), full MHB [2]: >32/>32 μg/mL; MIC P. aeruginosa PA14 4.13 ([2]; 12.5% MH pH 7.4): >32 µg/mL; MIC P. aeruginosa PA14 4.13 ([2]; full MH pH 7.4): >32 µg/mL"
VDKPPYLPRPRPPRRIYNR [sr14Nterm-Onc] (VDKPPYLPRPRPPRRIYNR-NH2; also: residues 1-14 stereorandomized (1:1 L/D mixture)),16,64,16,64,4,64,4,64,> 16 µg/mL,> 64 µg/mL,>16,>64,> 16,> 64,>16,>64,>64 / >64 μg/mL,>64 / >64 μg/mL,>64,>64,"MIC K. pneumoniae OXA-48, 12.5% MHB (K. pneumoniae OXA-48): >64/>64 μg/mL; MIC K. pneumoniae OXA-48, full MHB (K. pneumoniae OXA-48): >64/>64 μg/mL; MIC K. pneumoniae OXA-48 (K. pneumoniae OXA-48; 12.5% MH pH 7.4): >64 µg/mL; MIC K. pneumoniae OXA-48 (K. pneumoniae OXA-48; full MH pH 7.4): >64 µg/mL; MIC E. coli BW25113 WT, 12.5% MH (E. coli BW25113 WT): 16 µg/mL; MIC E. coli BW25113 WT, Full MH (E. coli BW25113 WT): > 64 µg/mL; MIC E. coli BW25113 SbmA-, 12.5% MH [1]: 16 µg/mL; MIC E. coli BW25113 SbmA-, Full MH [1]: > 64 µg/mL; MIC P. aeruginosa PA14 4.13 (phoQ), 12.5% MHB [2]: 32 µg/mL; MIC P. aeruginosa PA14 4.13 (phoQ), full MHB [2]: > 64 µg/mL; MIC P. aeruginosa PA14 4.13 ([2]; 12.5% MH pH 7.4): 32 µg/mL; MIC P. aeruginosa PA14 4.13 ([2]; full MH pH 7.4): >64 µg/mL"
